5 molecules from patent publication US20250380696A1, “METHOD FOR CONTROLLING UNDESIRED PLANTS AND PROMOTING GROWTH OF USEFUL PLANTS” (ISHIHARA SANGYO KAISHA, LTD., priority 2022, published 2025) can be followed below.

Holding throughout (type): in vivo
The test system of assay [1] is horseweed (Conyza canadensis). Nature of the assay: (14) Herbicidal effect test, pot, spray at diameter of 12 to 17 cm. The following applies: 6th day after spraying. The source says:
(§1) [formula] • X: growth inhibition rate when treated with α (g/ha) of compound A, • Y: growth inhibition rate when treated with β (g/ha) of compound B, • E: growth inhibition rate expected when treated with α (g/ha) of compound A and β (g/ha) of compound B (expected value).
(§2) Upland soil was put in a 1/1,000,000 hectare pot, and seeds of horseweed (Conyza canadensis) were sown. When the horseweed reached a diameter of 12 to 17 cm, a water-based suspension containing tiafenacil as the active ingredient, prepared by a conventional method for preparing a water-based suspension, and an emulsifiable concentrate containing S-metolachlor as the active ingredient (tradename: Dual Gold, manufactured by Syngenta), a wettable powder containing metribuzin as the active ingredient (tradename: SENCOR wettable powder, manufactured by Bayer Crop Science) or water dispersible granules containing pyroxasulfone as the active ingredient (tradename: Sakura, manufactured by Bayer Crop Science) were diluted with water (in an amount corresponding to 200 liter per hectare) containing 0.5 vol % of an agricultural spreader (tradename: Destiny HC, manufactured by Winfield Solutions, LLC.) and sprayed by a small spray gun (model: W-101-132G, manufactured by ANEST IWATA Corporation). On the 6th day after spraying, the state of growth of the horseweed was visually observed, and the growth inhibition rate (%) was obtained in accordance with the evaluation standards described in the above (1) herbicidal effect test, and the results are shown in Table 14. Further, the expected value of the growth inhibition rate (%) was calculated in accordance with the Colby's formula described in the above (1) herbicidal effect test, and the results are also shown in Table 14.

Assay [2] relates to Italian ryegrass (Lolium multiflorum). In words: (5) Herbicidal effect test, pot, spray at 3.0 to 3.3 leaf stage. The conditions noted are these: 6th day after spraying.
Text: as §1
Upland soil was put in a 1/1,000,000 hectare pot, and seeds of Italian ryegrass (Lolium multiflorum) were sown. When the Italian ryegrass reached 3.0 to 3.3 leaf stage, a water-based suspension containing tiafenacil as the active ingredient, prepared by a conventional method for preparing a water-based suspension, and a wettable powder containing metribuzin as the active ingredient (tradename: SENCOR wettable powder, manufactured by Bayer Crop Science), water dispersible granules containing pyroxasulfone as the active ingredient (tradename: Sakura, manufactured by Bayer Crop Science) or a wettable powder containing tri-allate as the active ingredient, prepared by a conventional method for preparing a wettable powder, were diluted with water (in an amount corresponding to 200 liter per hectare) containing 0.5 vol % of an agricultural spreader (tradename: Destiny HC, manufactured by Winfield Solutions, LLC.) and sprayed by a small spray gun (model: W-101-132G, manufactured by ANEST IWATA Corporation). On the 6th day after spraying, the state of growth of the Italian ryegrass was visually observed, and the growth inhibition rate (%) was obtained in accordance with the evaluation standards described in the above (1) herbicidal effect test, and the results are shown in Table 5. Further, the expected value of the growth inhibition rate (%) was calculated in accordance with the Colby's formula described in the above (1) herbicidal effect test, and the results are also shown in Table 5.

The subject of assay [3] is wheat (cultivar: Norin 61). In words: (21) Plant growth promotion effect test (wheat), Italian ryegrass sown. The conditions noted are these: 22nd day after the sowing, above-ground part. The source says: Upland soil was put in a 1/1,000,000 hectare pot, and seeds of Italian ryegrass (Lolium multiflorum) were sown. When the Italian ryegrass reached 3.3 to 3.8 leaf stage, a water-based suspension containing tiafenacil as the active ingredient, prepared by a conventional method for preparing a water-based suspension, and a wettable powder containing metribuzin as the active ingredient (tradename: SENCOR wettable powder, manufactured by Bayer Crop Science) or water dispersible granules containing pyroxasulfone as the active ingredient (tradename: Sakura, manufactured by Bayer Crop Science) were diluted with water (in an amount corresponding to 200 liter per hectare) containing 0.5 vol % of an agricultural spreader (tradename: Destiny HC, manufactured by Winfield Solutions, LLC.) and sprayed by a small spray gun (model: W-101-132G, manufactured by ANEST IWATA Corporation). Seeds of wheat (cultivar: Norin 61, manufactured by Asahi Noen Seed Co., Ltd.) were sown in the pot after spraying. On the 22nd day after the sowing, the above-ground part of the wheat was reaped, and its weight was measured to obtain the raw weight.

For assay [4], the system named is goosegrass (Eleusine indica). Nature of the assay: (10) Herbicidal effect test, pot, spray at 6.5 to 7.8 leaf stage. The following applies: 13th day after spraying.
Text: as §1
as §2, with “goosegrass (Eleusine indica)” for “horseweed (Conyza canadensis)”, “goosegrass” for “horseweed”, “6.5” for “a diameter of 12”, “7.8 leaf stage,” for “17 cm,”, “13th” for “6th”, “10.” for “14.”

Assay [5] relates to forage corn (cultivar: SNOW DENT OTOHA). In words: (17) Plant growth promotion effect test (corn), Italian ryegrass sown. The conditions noted are these: 20th day after the sowing, above-ground part. The source says:
Upland soil was put in a 1/1,000,000 hectare pot, and seeds of Italian ryegrass (Lolium multiflorum) were sown. When the Italian ryegrass reached 2.5 to 3.0 leaf stage, a water-based suspension containing tiafenacil as the active ingredient, prepared by a conventional method for preparing a water-based suspension, and an emulsifiable concentrate containing S-metolachlor as the active ingredient (tradename: Dual Gold, manufactured by Syngenta) or a wettable powder containing metribuzin as the active ingredient (tradename: SENCOR wettable powder, manufactured by Bayer Crop Science) were diluted with water (in an amount corresponding to 200 liter per hectare) containing 0.5 vol % of an agricultural spreader (tradename: Destiny HC, manufactured by Winfield Solutions, LLC.) and sprayed by a small spray gun (model: W-101-132G, manufactured by ANEST IWATA Corporation). Seeds of forage corn (cultivar: SNOW DENT OTOHA, manufactured by SNOW BRAND SEED Co., Ltd.) were sown in the pot after spraying. On the 20th day after the sowing, the above-ground part of the forage corn was reaped, and its weight was measured to obtain the raw weight.

As for `Cn1nc(C(F)(F)F)c(CS(=O)(=O)C2=NOC(C)(C)C2)c1OC(F)F` [pyroxasulfone], the inhibition at 7.5 g/ha in assay [1] (Erigeron canadensis, Dose 7.5 g/ha, read-out: Growth inhibition rate (%) Measured value) was 0%; in assay [2] (Lolium multiflorum, Dose 7.5 g/ha, read-out: Growth inhibition rate (%) Measured value), 0%; in assay [4] (Eleusine indica, Dose 7.5 g/ha, read-out: Growth inhibition rate (%) Measured value) it was 0%. The inhibition at 250 g/ha in assay [1] (Erigeron canadensis, Dose 250 g/ha, read-out: Growth inhibition rate (%) Measured value) was 0%; in assay [2] (Lolium multiflorum, Dose 250 g/ha, read-out: Growth inhibition rate (%) Measured value), 23%; in assay [4] (Eleusine indica, Dose 250 g/ha, read-out: Growth inhibition rate (%) Measured value) it was 2%. Also, the inhibition at 500 g/ha in assay [1] (Erigeron canadensis, Dose 500 g/ha, read-out: Growth inhibition rate (%) Measured value) came out at 0%; in assay [4] (Eleusine indica, Dose 500 g/ha, read-out: Growth inhibition rate (%) Measured value) it was 2%. Further, the inhibition at 15 g/ha in assay [2] (Lolium multiflorum, Dose 15 g/ha, read-out: Growth inhibition rate (%) Measured value) came to 3%. For the same molecule, in assay [2] (Lolium multiflorum, Dose 62.5 g/ha, read-out: Growth inhibition rate (%) Measured value), the inhibition at 62.5 g/ha was 8%. For the same molecule, in assay [2] (Lolium multiflorum, Dose 125 g/ha, read-out: Growth inhibition rate (%) Measured value), the inhibition at 125 g/ha amounted to 17%. In addition, the “Raw weight (g) of wheat” value in assay [3] (Dose 37.5 g/ha) was 1.2 g.
For the molecule `CCc1cccc(C)c1N(C(=O)CCl)[C@@H](C)COC` [S-metolachlor], the “Growth inhibition rate (%) Measured value” in assay [1] (Dose 7.5 g/ha) was 0%; in assay [1] (Dose 375 g/ha), 0%; in assay [1] (Dose 750 g/ha), 0%; in assay [4] (Dose 7.5 g/ha), 7%; in assay [4] (Dose 375 g/ha), 7%; in assay [4] (Dose 750 g/ha) it was 7%. Further, the “Raw weight (g) of forage corn” value in assay [5] (Dose 750 g/ha) turned out to be 5.1 g.
With `COC(=O)CCNC(=O)C(C)Sc1cc(-n2c(=O)cc(C(F)(F)F)n(C)c2=O)c(F)cc1Cl` (centres unmarked) [tiafenacil], the “Growth inhibition rate (%) Measured value” in assay [1] (Dose 6.25 g/ha) came out at 23%; in assay [2] (Dose 3.13 g/ha), 17%; in assay [2] (Dose 6.25 g/ha), 33%; in assay [2] (Dose 12.5 g/ha), 60%; in assay [4] (Dose 6.25 g/ha), 30%. For the same molecule, the “Raw weight (g) of forage corn” value in assay [5] (Dose 12.5 g/ha) worked out at 8.5 g. Further, the “Raw weight (g) of wheat” value in assay [3] (Dose 3 g/ha) came out at 2.3 g.
As to `CC(C)N(C(=O)SCC(Cl)=C(Cl)Cl)C(C)C` [tri-allate], the inhibition at 75 g/ha in assay [2] (Lolium multiflorum, Dose 75 g/ha, read-out: Growth inhibition rate (%) Measured value) came out at 0%. In addition, the inhibition at 150 g/ha in assay [2] (Lolium multiflorum, Dose 150 g/ha, read-out: Growth inhibition rate (%) Measured value) came out at 0%. Moreover, in assay [2] (Lolium multiflorum, Dose 625 g/ha, read-out: Growth inhibition rate (%) Measured value), the inhibition at 625 g/ha was 2%. Besides, the inhibition at 1250 g/ha in assay [2] (Lolium multiflorum, Dose 1250 g/ha, read-out: Growth inhibition rate (%) Measured value) was 5%.
As for `CSc1nnc(C(C)(C)C)c(=O)n1N` [metribuzin], the inhibition at 9.38 g/ha is 0% in assay [1] (Erigeron canadensis, Dose 9.38 g/ha, read-out: Growth inhibition rate (%) Measured value) and 7% in assay [4] (Eleusine indica, Dose 9.38 g/ha, read-out: Growth inhibition rate (%) Measured value). Further, the inhibition at 550 g/ha in assay [1] (Erigeron canadensis, Dose 550 g/ha, read-out: Growth inhibition rate (%) Measured value) was 5%; in assay [2] (Lolium multiflorum, Dose 550 g/ha, read-out: Growth inhibition rate (%) Measured value), 30%; in assay [4] (Eleusine indica, Dose 550 g/ha, read-out: Growth inhibition rate (%) Measured value), 68%. The inhibition at 1100 g/ha in assay [1] (Erigeron canadensis, Dose 1100 g/ha, read-out: Growth inhibition rate (%) Measured value) worked out at 5%; in assay [4] (Eleusine indica, Dose 1100 g/ha, read-out: Growth inhibition rate (%) Measured value), 72%. Also, the inhibition at 137.5 g/ha in assay [2] (Lolium multiflorum, Dose 137.5 g/ha, read-out: Growth inhibition rate (%) Measured value) worked out at 20%. Further, the inhibition at 275 g/ha in assay [2] (Lolium multiflorum, Dose 275 g/ha, read-out: Growth inhibition rate (%) Measured value) was determined as 30%. In addition, the “Raw weight (g) of forage corn” value in assay [5] (Dose 18.75 g/ha) is 6.2 g. Besides, the “Raw weight (g) of wheat” value in assay [3] (Dose 150 g/ha) is recorded as 2.5 g.
